Where only a bound is given, the exact number is not on record here.

The target in the test is TNAP (Homo sapiens (Human), UniProt P05186). Nature of the test: TNAP (PPi) inhibition assay, pyrophosphate as substrate. Type of test: biochemical. Summed up: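 Enzyme source was conditioned serum-free medium from COS-1 cells transiently expressing tagged human TNAP, dialyzed against TBS with MgCl2/ZnCl2. Activity on natural substrate PPi at pH 7.4 read as liberated phosphate (Biomol Green).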
By IC50 is commonly meant the midpoint of a concentration-inhibition curve. A lower IC50 goes with greater potency. `COc1ccc(OC)c(S(=O)(=O)Nc2cncc(C(=O)N3CCN(C)CC3)c2)c1` [Example IV-44, 2,5-Dimethoxy-N-(5-(4-methylpiperazine-1-carbonyl)pyridin-3-yl)benzenesulfonamide] displayed an IC50 of less than 100 nM.
In the case of `COc1ccc(Br)cc1S(=O)(=O)Nc1cnc2ccc(O)cc2c1` [Example IX-1, 5-Bromo-N-(6-hydroxyquinolin-3-yl)-2-methoxybenzenesulfonamide] it was less than 100 nM; in that of `COc1ccc2ncc(NS(=O)(=O)c3cc(Br)ccc3OC)cc2c1` [Example IX-2, 5-Bromo-2-methoxy-N-(6-methoxyquinolin-3-yl)benzenesulfonamide], less than 100 nM; in that of `COc1ccc(OC)c(S(=O)(=O)Nc2cnc3ccc(O)cc3c2)c1` [Example IX-3, N-(6-Hydroxyquinolin-3-yl)-2,5-dimethoxybenzenesulfonamide], less than 100 nM.
In the case of `COC(=O)c1ccc2ncc(NS(=O)(=O)c3cc(Br)ccc3OC)cc2c1` [Example IX-4, 3-(5-Bromo-2-methoxy-benzenesulfonylamino)-quinoline-6-carboxylic Acid methyl ester] it was less than 100 nM; in that of `COc1ccc(Br)cc1S(=O)(=O)Nc1cnc2ccc(C(=O)O)cc2c1` [Example IX-5, 3-(5-Bromo-2-methoxy-benzenesulfonylamino)-quinoline-6-carboxylic Acid], 100 to 1000 nM; in that of `COc1ccc(Br)cc1S(=O)(=O)Nc1cnc2ccc(C(N)=O)cc2c1` [Example IX-6, 3-(5-Bromo-2-methoxy-benzenesulfonylamino)-quinoline-6-carboxylic Acid Amide], less than 100 nM.
As for `CNC(=O)c1ccc2ncc(NS(=O)(=O)c3cc(Br)ccc3OC)cc2c1` [Example IX-7, 3-(5-Bromo-2-methoxy-benzenesulfonylamino)-quinoline-6-carboxylic Acid Methylamide], the IC50 was less than 100 nM.
Molecule `COC(=O)c1ccc2ncc(NS(=O)(=O)c3cc(OC)ccc3OC)cc2c1` [Example IX-8, 3-(2,5-Dimethoxy-benzenesulfonylamino)-quinoline-6-carboxylic Acid Methyl Ester] yielded an IC50 of 100 to 1000 nM.
In the case of `COc1ccc(OC)c(S(=O)(=O)Nc2cnc3ccc(C(=O)O)cc3c2)c1` [Example IX-9, 3-(2,5-Dimethoxy-benzenesulfonylamino)-quinoline-6-carboxylic Acid] it was more than 1000 nM; in that of `COc1ccc(OC)c(S(=O)(=O)Nc2cnc3ccc(C(N)=O)cc3c2)c1` [Example IX-10, 3-(2,5-Dimethoxy-benzenesulfonylamino)-quinoline-6-carboxylic Acid Amide], 100 to 1000 nM.
In the case of `CNC(=O)c1ccc2ncc(NS(=O)(=O)c3cc(OC)ccc3OC)cc2c1` [Example IX-11, 3-(2,5-Dimethoxy-benzenesulfonylamino)-quinoline-6-carboxylic Acid Methylamide] it was 100 to 1000 nM; in that of `CCCNC(=O)c1ccc2ncc(NS(=O)(=O)c3cc(OC)ccc3OC)cc2c1` [Example IX-12, 3-(2,5-Dimethoxy-benzenesulfonylamino)-quinoline-6-carboxylic Acid Propylamide], less than 100 nM; in that of `COc1ccc(OC)c(S(=O)(=O)Nc2cnc3ccc(C(=O)NC4CC4)cc3c2)c1` [Example IX-13, 3-(2,5-Dimethoxy-benzenesulfonylamino)-quinoline-6-carboxylic Acid Cyclopropylamide], 100 to 1000 nM.
In the case of `COc1ccc(OC)c(S(=O)(=O)Nc2cnc3ccc(C(=O)NC4CCCCC4)cc3c2)c1` [Example IX-14, 3-(2,5-Dimethoxy-benzenesulfonylamino)-quinoline-6-carboxylic Acid Cyclohexylamide] it was less than 100 nM.
`COc1ccc(OC)c(S(=O)(=O)Nc2cnc3ccc(CN(C)C)cc3c2)c1` [Example IX-15] had an IC50 of 100 to 1000 nM.
In the case of `COc1ccc(Br)cc1S(=O)(=O)Nc1ccsc1` [Example V-1, 5-Bromo-2-methoxy-N-(thiophen-3-yl)benzenesulfonamide] it was more than 1000 nM.
`COc1ccc(OC)c(S(=O)(=O)Nc2ccsc2)c1` [Example V-2, 2,5-Dimethoxy-N-(thiophen-3-yl)benzenesulfonamide] gave an IC50 of more than 1000 nM.
In the case of `COc1ccc(Br)cc1S(=O)(=O)Nc1ncco1` [Example V-3, 5-Bromo-2-methoxy-N-oxazol-2-yl-benzenesulfonamide] it was more than 1000 nM; in that of `COc1ccc(OC)c(S(=O)(=O)Nc2ncco2)c1` [Example V-4, 2,5-Dimethoxy-N-oxazol-2-yl-benzenesulfonamide], more than 1000 nM.
In the case of `COc1ccc(Br)cc1S(=O)(=O)Nc1cc(C)no1` [Example V-5, 5-Bromo-2-methoxy-N-(3-methyl-isoxazol-5-yl)-benzenesulfonamide] it was 100 to 1000 nM.
In the case of `COc1ccc(OC)c(S(=O)(=O)Nc2cc(C)no2)c1` [Example V-6, 2,5-Dimethoxy-N-(3-methyl-isoxazol-5-yl)-benzenesulfonamide] it was 100 to 1000 nM; in that of `COc1ccc(Br)cc1S(=O)(=O)Nc1cc[nH]n1` [Example V-7, 5-Bromo-2-methoxy-N-(1H-pyrazol-3-yl)-benzenesulfonamide], more than 1000 nM.
The molecule `COc1ccc(OC)c(S(=O)(=O)Nc2cc[nH]n2)c1` [Example V-8, 2,5-Dimethoxy-N-(1H-pyrazol-3-yl)-benzenesulfonamide] registered an IC50 of more than 1000 nM.
Consider `COc1ccc(Br)cc1S(=O)(=O)Nc1ccn(C)n1` [Example V-9, 5-Bromo-2-methoxy-N-(1-methyl-1H-pyrazol-3-yl)-benzenesulfonamide], for which the IC50 is more than 1000 nM.
In the case of `COc1ccc(OC)c(S(=O)(=O)Nc2ccn(C)n2)c1` [Example V-10, 2,5-Dimethoxy-N-(1-methyl-1H-pyrazol-3-yl)-benzenesulfonamide] it was more than 1000 nM; in that of `COc1ccc(Br)cc1S(=O)(=O)Nc1ccnn1C` [Example V-11, 5-Bromo-2-methoxy-N-(2-methyl-2H-pyrazol-3-yl)-benzenesulfonamide], more than 1000 nM.
In the case of `COc1ccc(OC)c(S(=O)(=O)Nc2ccnn2C)c1` [Example V-12, 2,5-Dimethoxy-N-(2-methyl-2H-pyrazol-3-yl)-benzenesulfonamide] it was more than 1000 nM.
In the case of `COc1ccc(Br)cc1S(=O)(=O)Nc1cc(C(F)(F)F)n(C)n1` [Example V-13, 5-Bromo-2-methoxy-N-(1-methyl-5-trifluoromethyl-1H-pyrazol-3-yl)-benzenesulfonamide] it was more than 1000 nM; in that of `COc1ccc(OC)c(S(=O)(=O)Nc2cc(C(F)(F)F)n(C)n2)c1` [Example V-14, 2,5-Dimethoxy-N-(1-methyl-5-trifluoromethyl-1H-pyrazol-3-yl)-benzenesulfonamide], more than 1000 nM; in that of `COc1ccc(Br)cc1S(=O)(=O)Nc1nccs1` [Example V-15, 5-Bromo-2-methoxy-N-thiazol-2-yl-benzenesulfonamide], more than 1000 nM.
For `COc1ccc(OC)c(S(=O)(=O)Nc2nccs2)c1` [Example V-16, 2,5-Dimethoxy-N-thiazol-2-yl-benzenesulfonamide], the IC50 was more than 1000 nM.
The molecule `COc1ccc(Br)cc1S(=O)(=O)Nc1nnc(C)s1` [Example V-17, 5-Bromo-2-methoxy-N-(5-methyl-[1,3,4]thiadiazol-2-yl)-benzenesulfonamide] yielded an IC50 of more than 1000 nM.
In the case of `COc1ccc(OC)c(S(=O)(=O)Nc2nnc(C)s2)c1` [Example V-18, 2,5-Dimethoxy-N-(5-methyl-[1,3,4]thiadiazol-2-yl)-benzenesulfonamide] it was more than 1000 nM; in that of `COc1ccc(Br)cc1S(=O)(=O)Nc1nnc(C(F)(F)F)s1` [Example V-19, 5-Bromo-2-methoxy-N-(5-trifluoromethyl-[1,3,4]thiadiazol-2-yl)-benzenesulfonamide], 100 to 1000 nM.
In the case of `COc1ccc(OC)c(S(=O)(=O)Nc2nnc(C(F)(F)F)s2)c1` [Example V-20] it was more than 1000 nM.
In the case of `COc1ccc(Br)cc1S(=O)(=O)Nc1nnc(C)o1` [Example V-21, 5-Bromo-2-methoxy-N-(5-methyl-[1,3,4]oxadiazol-2-yl)-benzenesulfonamide] it was more than 1000 nM.
As to `COc1ccc(OC)c(S(=O)(=O)Nc2nnc(C)o2)c1` [Example V-22, 2,5-Dimethoxy-N-(5-methyl-[1,3,4]oxadiazol-2-yl)-benzenesulfonamide], the IC50 was more than 1000 nM.
The molecule `COc1ccc(OC)c(S(=O)(=O)Nc2cnccn2)c1` [Example V-23, 2,5-Dimethoxy-N-pyrazin-2-yl-benzenesulfonamide] yielded an IC50 of more than 1000 nM.
In the case of `COc1ccc(Br)cc1S(=O)(=O)Nc1cccnn1` [Example V-24, 5-Bromo-2-methoxy-N-pyridazin-3-yl-benzenesulfonamide] it was 100 to 1000 nM.
In the case of `COc1ccc(OC)c(S(=O)(=O)Nc2cccnn2)c1` [Example V-25, 2,5-Dimethoxy-N-pyridazin-3-yl-benzenesulfonamide] it was more than 1000 nM.
In the case of `COc1ccc(Br)cc1S(=O)(=O)Nc1ccnnc1` [Example V-26, 5-Bromo-2-methoxy-N-pyridazin-4-yl-benzenesulfonamide] it was more than 1000 nM; in that of `COc1ccc(OC)c(S(=O)(=O)Nc2ccnnc2)c1` [Example V-27, 2,5-Dimethoxy-N-pyridazin-4-yl-benzenesulfonamide], more than 1000 nM; in that of `COc1ccc(Br)cc1S(=O)(=O)Nc1ncccn1` [Example V-28, 5-Bromo-2-methoxy-N-pyrimidin-2-yl-benzenesulfonamide], more than 1000 nM.
Regarding `COc1ccc(OC)c(S(=O)(=O)Nc2ncccn2)c1` [Example V-29, 2,5-Dimethoxy-N-pyrimidin-2-yl-benzenesulfonamide], the IC50 was more than 1000 nM.
In the case of `COc1ncc(Br)cc1S(=O)(=O)Nc1cnc2ccccc2c1` [Example VI-1, 5-Bromo-2-methoxy-pyridine-3-sulfonic acid quinolin-3-ylamide] it was less than 100 nM.
In the case of `CCN(c1cnc2ccccc2c1)S(=O)(=O)c1cc(Br)ccc1OC` [Example VII-2, 5-Bromo-2-methoxy-N-ethyl-N-(quinolin-3-yl)benzenesulfonamide] it was more than 1000 nM.

Source of the values: US10370333B2 (Sanford Burnham Prebys Medical Discovery Institute, priority 2012, dated 2019).
